Measured values as given in PMC7413254 (Nature Communications, 2020).
“And” between values parts separate entries of the source, which are not always exact repeats. Equal values may be shown once. Read-outs that look alike come from different tables or passages of the source. Where no end group is shown, it is not given here.

Key:
non-expressing oocytes [1] = type: cell-based, Xenopus laevis
Description: (§1) Unless specified otherwise, the transport assays were conducted over 1.5 h at 27.5 °C and the reaction buffer was ND96 (96 mM NaCl, 2 mM KCl, 1 mM MgCl2, 1.8 mM CaCl2, 10 mM MES and 10 mM Tris-base) at pH 5.5.
The intracellular concentrations were calculated using previous estimates of the volume of stage V–VI oocytes (~400 nL[60]). […] The oocytes were injected with VF-6 suspended in 25 nL ND96 buffer adjusted to pH 5.0, 5.5, 6.0 or 7.0, which corresponded to the injection of 2.5–250 fmol of H^+. The Na^+-dependence of the trans-stimulatory effect of VF-6 was assessed by injecting the oocytes with VF-6 suspended in ND96 buffer (pH 5.5) or a Na^+-free version of this buffer (the Na^+ was replaced with choline).
(§2) At least four independent experiments were performed (on different days and using oocytes from different frogs), and within each experiment measurements were made from ten oocytes per treatment.

PfCRT^3D7 = PfCRT^3D7 (Plasmodium falciparum, UniProt Q8IBZ9); test: cell-based; type: cell-based; conditions: for [3H]CQ transport, PfCRT3D7 (% PfCRT3D7 control): solute 45 mM injected (estimated intracellular)
Summary of the method: (§3)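 Transport measured in Xenopus oocytes expressing the transporters, 1.5 h at 27.5 °C in ND96 pH 5.5 unless noted. For trans-stimulation, VF-6 injected in 25 nL ND96 at pH 5.0–7.0 or Na^+-free (choline) buffer; intracellular levels based on ~400 nL oocyte volume. Ten oocytes per treatment, ≥4 experiments.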

PfCRT^Ecu1110 [2] = molecular target: T1, PfCRT^Ecu1110 (Plasmodium falciparum, UniProt Q9N623, A220S/I356L/K76T/N326D); test: cell-based; type: cell-based
Summary of the method: as §3

PfCRT^Dd2 [3] = molecular target: T2, PfCRT^Dd2 (Plasmodium falciparum, UniProt Q9N623, A220S/I356T/K76T/M74I/N326S/N75E/Q271E/R371I); test: cell-based; type: cell-based
Summary of the method: as §3

PfNT1 = molecular target: T3, PfNT1 (Plasmodium falciparum, UniProt Q8IDM6); test: cell-based; type: cell-based; conditions: for [3H]CQ transport, PfNT1 (% PfCRTDd2 control): trans-stimulation, solute 45 mM injected (estimated intracellular)
T3 construct: expressed in transfected cells; host or cells: Xenopus laevis oocytes (stage V-VI), cRNA-injected
Summary of the method: as §3

non-expressing oocytes [4] = test: cells; type: cell-based, Xenopus laevis
Excerpt: The orientation of PfCRT in the parasite’s DV membrane, and also in the oocyte plasma membrane, is such that its N- and C-termini extend into the cytosol. The oocytes were suspended in a reaction buffer adjusted to pH 5.5 to mimic the pH of the DV lumen[1],[2]. In this scenario, the transport of a substrate via PfCRT from the acidic extracellular solution into the oocyte cytosol[15] is analogous to the parasite’s PfCRT-mediated efflux of a substrate from the acidic DV and into the cytosol. Unless specified otherwise, this is the direction in which substrate transport was measured in the oocyte assays.
as §1
Ten oocytes were washed twice with the relevant ND96 buffer. […] The assay was terminated by removing the reaction buffer and washing the oocytes with ice-cold ND96 buffer. The oocytes were lysed in 10% (w/v) sodium dodecyl sulfate (SDS) and the radioactivity accumulated within each oocyte was measured with a MicroBeta^2 microplate liquid scintillation analyser (PerkinElmer).
as §2

PfCRT^Ecu1110 [5] = molecular target: T1, PfCRT^Ecu1110; test: [3H]CQ uptake into Xenopus oocytes, cis-inhibition by unlabelled solute; type: cell-based
Summary of the method: (§4)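 Assay buffer ND96 (10 mM MES, 10 mM Tris-base) held at pH 5.5 to mimic vacuole lumen; uptake measured inward from this acidic medium over 1.5 h at 27.5 °C.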

PfCRT^Dd2 [6] = molecular target: T2, PfCRT^Dd2; test: as above; type: cell-based; conditions: read-out: PfCRT-mediated [3H]CQ transport, cis-inhibition (% PfCRTDd2 control)
Summary of the method: as §4

[7] = trans-stimulation, footnote b: due to solubility the highest intracellular concentration tested was 30 mM, normalised to the oocyte type control = 100
[8] = read-out: PfCRT-mediated [3H]CQ transport, cis-inhibition (% PfCRTEcu1110 control)
[9] = read-out: [3H]CQ transport (% PfCRTEcu1110 control), cis-inhibition, PfCRTEcu1110, SEM

T2 sequence (Q9N623 whole entry A220S/I356T/K76T/M74I/N326S/N75E/Q271E/R371I): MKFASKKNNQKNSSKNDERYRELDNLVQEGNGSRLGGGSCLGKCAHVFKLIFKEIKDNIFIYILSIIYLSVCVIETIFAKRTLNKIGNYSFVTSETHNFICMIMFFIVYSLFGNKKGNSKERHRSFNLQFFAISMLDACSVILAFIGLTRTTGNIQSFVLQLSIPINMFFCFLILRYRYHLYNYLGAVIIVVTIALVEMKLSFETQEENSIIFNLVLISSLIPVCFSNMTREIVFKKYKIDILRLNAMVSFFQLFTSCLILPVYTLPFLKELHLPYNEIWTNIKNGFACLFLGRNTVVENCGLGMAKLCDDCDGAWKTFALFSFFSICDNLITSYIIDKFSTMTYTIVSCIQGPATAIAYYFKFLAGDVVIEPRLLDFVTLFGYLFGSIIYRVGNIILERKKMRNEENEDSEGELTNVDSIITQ
Sequence of PfCRT^3D7 (Q8IBZ9 59-398): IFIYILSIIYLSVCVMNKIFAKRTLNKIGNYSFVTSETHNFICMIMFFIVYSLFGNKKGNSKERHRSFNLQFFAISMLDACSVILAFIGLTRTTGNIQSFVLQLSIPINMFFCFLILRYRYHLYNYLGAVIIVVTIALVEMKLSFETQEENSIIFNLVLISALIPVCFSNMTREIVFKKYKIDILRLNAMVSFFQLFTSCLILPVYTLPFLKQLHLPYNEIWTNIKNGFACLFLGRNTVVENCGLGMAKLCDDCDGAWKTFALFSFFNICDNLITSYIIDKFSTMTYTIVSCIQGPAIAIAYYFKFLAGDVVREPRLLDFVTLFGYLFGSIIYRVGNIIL
T1 sequence (Q9N623 whole entry A220S/I356L/K76T/N326D): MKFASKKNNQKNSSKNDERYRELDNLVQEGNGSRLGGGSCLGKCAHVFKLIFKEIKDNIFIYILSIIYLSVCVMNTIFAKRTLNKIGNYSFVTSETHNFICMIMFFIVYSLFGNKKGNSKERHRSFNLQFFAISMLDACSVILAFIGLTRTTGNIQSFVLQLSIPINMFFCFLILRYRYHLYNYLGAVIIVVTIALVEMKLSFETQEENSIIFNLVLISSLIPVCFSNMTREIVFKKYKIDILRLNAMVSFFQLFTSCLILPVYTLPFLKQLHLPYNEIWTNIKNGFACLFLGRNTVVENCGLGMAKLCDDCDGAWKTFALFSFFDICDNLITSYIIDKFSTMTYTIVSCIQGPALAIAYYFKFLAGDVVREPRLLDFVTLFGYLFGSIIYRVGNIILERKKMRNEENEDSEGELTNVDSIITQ
T3 sequence (Q8IDM6 whole entry): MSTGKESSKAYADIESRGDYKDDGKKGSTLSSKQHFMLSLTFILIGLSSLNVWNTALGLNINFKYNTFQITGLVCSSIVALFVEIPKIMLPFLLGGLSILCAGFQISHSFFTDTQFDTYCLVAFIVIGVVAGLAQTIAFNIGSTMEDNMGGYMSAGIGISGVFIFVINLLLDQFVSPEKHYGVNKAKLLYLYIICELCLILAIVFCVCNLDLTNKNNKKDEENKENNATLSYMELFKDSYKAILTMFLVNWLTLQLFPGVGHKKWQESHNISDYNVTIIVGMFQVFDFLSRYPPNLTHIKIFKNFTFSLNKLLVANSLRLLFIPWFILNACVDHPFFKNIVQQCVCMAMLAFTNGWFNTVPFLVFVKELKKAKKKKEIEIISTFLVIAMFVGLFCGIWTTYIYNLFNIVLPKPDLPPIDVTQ

LTPEEKSAVTALWGKVNVDEVGGEA [LA-25, additional peptide, 25 residues]
Total [3H]CQ transport, trans-stimulation by injected solute (non-expressing oocytes [1]; non-expressing oocytes, footnote b: highest intracellular concentration tested was 30 mM (solubility)): 2.5 ± 0.04b % of the PfCRTDd2 control
Trans-stimulation data: total [3H]CQ transport (non-expressing oocytes [1]; non-expressing oocytes, footnote b: highest intracellular concentration tested was 30 mM (solubility), normalised to the oocyte type control (control = 100)): 101 ± 3.3b
Trans-stimulation data: PfCRT-mediated [3H]CQ transport (PfCRT^3D7; 2nd of 6 trans-stimulation columns, footnote b: due to solubility the highest intracellular concentration tested was 30 mM, normalised to the oocyte type control = 100): 97 ± 3.1b
Total [3H]CQ transport, trans-stimulation by injected solute (PfCRT^3D7; PfCRT3D7 oocytes, footnote b: highest intracellular concentration tested was 30 mM (solubility)): 3.1 ± 0.02b % of the PfCRTDd2 control
Trans-stimulation data: total [3H]CQ transport (PfCRT^3D7; PfCRT3D7 oocytes, footnote b: highest intracellular concentration tested was 30 mM (solubility), normalised to the oocyte type control (control = 100)): 99 ± 2.6b
Total [3H]CQ transport, trans-stimulation by injected solute (PfCRT^Ecu1110 [2]; PfCRTEcu1110 oocytes, footnote b: highest intracellular concentration tested was 30 mM (solubility)): 33 ± 1.8b % of the PfCRTDd2 control
Trans-stimulation data: total [3H]CQ transport (PfCRT^Ecu1110 [2]; PfCRTEcu1110 oocytes, footnote b: highest intracellular concentration tested was 30 mM (solubility), normalised to the oocyte type control (control = 100)): 101 ± 4.3b
Trans-stimulation data: PfCRT-mediated [3H]CQ transport (PfCRT^Ecu1110 [2]; [7]): 98 ± 4.2b
Total [3H]CQ transport, trans-stimulation by injected solute (PfCRT^Dd2 [3]; PfCRTDd2 oocytes, footnote b: highest intracellular concentration tested was 30 mM (solubility)): 100 ± 3.3b % of the PfCRTDd2 control
Trans-stimulation data: total [3H]CQ transport (PfCRT^Dd2 [3]; PfCRTDd2 oocytes, footnote b: highest intracellular concentration tested was 30 mM (solubility), normalised to the oocyte type control (control = 100)): 100 ± 3.3b
PfCRT-mediated [3H]CQ transport, trans-stimulation by injected solute, PfCRTDd2 (PfCRT^Dd2 [3]; footnote b: due to solubility the highest intracellular concentration tested was 30 mM, background subtracted): 97 ± 3.3b % of PfCRTDd2 control
Trans-stimulation data: PfCRT-mediated [3H]CQ transport (PfCRT^Dd2 [3]; [7]): 97 ± 3.3b
Total [3H]CQ transport, trans-stimulation by injected solute (PfNT1; PfNT1 oocytes, footnote b: highest intracellular concentration tested was 30 mM (solubility)): 2.7 ± 0.07b % of the PfCRTDd2 control
Trans-stimulation data: total [3H]CQ transport (PfNT1; PfNT1 oocytes, footnote b: highest intracellular concentration tested was 30 mM (solubility), normalised to the oocyte type control (control = 100)): 101 ± 4.1b

C[N+](C)(C)CCO [Choline]
Trans-stimulation data: total [3H]CQ transport, normalised to the oocyte type control (non-expressing oocytes [1]): 99 ± 2.8 and 100 ± 2.6
Cis-inhibition data: total [3H]CQ transport, normalised to the oocyte type control (non-expressing oocytes [4]): 100 ± 5.4 and 99 ± 4.3 and 98 ± 3.6

HVDDM [HM-5]
inhibition at 1000 µM (PfCRT^Ecu1110 [5]; [8]): 41 ± 3.5%
inhibition at 2000 µM (PfCRT^Ecu1110 [5]; [8]): 32 ± 2.1%
inhibition at 500 µM (PfCRT^Ecu1110 [5]; [9]): 14 ± 0.1%
inhibition at 2000 µM (PfCRT^Ecu1110 [5]; [9]): 10 ± 0.5%
inhibition at 500 µM (PfCRT^Dd2 [6]): 32 ± 0.8%
inhibition at 1000 µM (PfCRT^Dd2 [6]): 19 ± 2%
inhibition at 2000 µM (PfCRT^Dd2 [6]): 9 ± 0.1%
activity at 5000 µM (PfCRT^3D7; […], read-out: PfCRT-mediated [3H]CQ transport, trans-stimulation (% PfCRT3D7 control), [test solute]i = 5 mM (intracellular), PfCRT3D7 oocytes, normalised to oocyte type control): 130 ± 4.2%
activity at 45000 µM (PfCRT^3D7; […], read-out: PfCRT-mediated [3H]CQ transport, trans-stimulation (% PfCRT3D7 control), [test solute]i = 45 mM (intracellular; 30 mM for some solutes due to solubility), PfCRT3D7 oocytes, normalised to oocyte type control): 178 ± 5.2%
[3H]CQ transport, PfCRT3D7 (% PfCRT3D7 control) (PfCRT^3D7; trans-stimulation, Experiment 1): 193.43 % PfCRT3D7 control
[3H]CQ transport, PfCRT3D7 (% PfCRT3D7 control) (PfCRT^3D7; trans-stimulation, Experiment 2): 185.08 % PfCRT3D7 control
[3H]CQ transport, PfCRT3D7 (% PfCRT3D7 control) (PfCRT^3D7; trans-stimulation, Experiment 3): 185.21 % PfCRT3D7 control
[3H]CQ transport, PfCRT3D7 (% PfCRT3D7 control) (PfCRT^3D7; trans-stimulation, Experiment 4): 174.23 % PfCRT3D7 control
[3H]CQ transport (% PfCRT3D7 control), trans-stimulation, PfCRT3D7 (PfCRT^3D7; trans-stimulation, [test solute]i = 5 mM (injected), PfCRT-mediated component (background subtracted), sheet title says normalised to PfCRTDd2 control, mean ± SEM, SEM): 0.2 ± 0.01 % PfCRT3D7 control
activity at 5000 µM (PfCRT^Ecu1110 [2]; […], pH 5.5, read-out: PfCRT-mediated [3H]CQ transport, trans-stimulation (% PfCRTEcu1110 control), [test solute]i = 5 mM (intracellular), PfCRTEcu1110 oocytes, normalised to oocyte type control): 122 ± 1.1%
activity at 5000 µM (PfCRT^Dd2 [3]; […], pH 5.5, read-out: PfCRT-mediated [3H]CQ transport, trans-stimulation (% PfCRTDd2 control), [test solute]i = 5 mM (intracellular), PfCRTDd2 oocytes, normalised to oocyte type control): 100 ± 2.5%
activity at 5000 µM (PfCRT^Dd2 [3]; […], pH 5.5, read-out: [3H]CQ transport (% PfCRTDd2 control), trans-stimulation, PfCRTDd2, trans-stimulation, [test solute]i = 5 mM (injected), PfCRT-mediated component (background subtracted), mean ± SEM, SEM): 100 ± 2.5%
activity at 45000 µM (PfCRT^Dd2 [3]; […], pH 5.5, read-out: [3H]CQ transport (% PfCRTDd2 control), trans-stimulation, PfCRTDd2, trans-stimulation, [test solute]i = 45 mM (30 mM for some solutes due to solubility), PfCRT-mediated component (background subtracted), mean ± SEM, SEM): 113 ± 2.2%
[3H]CQ transport, PfNT1 (% PfCRTDd2 control) (PfNT1; Experiment 1): 3.35 % PfCRTDd2 control
[3H]CQ transport, PfNT1 (% PfCRTDd2 control) (PfNT1; Experiment 2): 3.11 % PfCRTDd2 control
[3H]CQ transport, PfNT1 (% PfCRTDd2 control) (PfNT1; Experiment 3): 3.44 % PfCRTDd2 control
[3H]CQ transport, PfNT1 (% PfCRTDd2 control) (PfNT1; Experiment 4): 3.27 % PfCRTDd2 control

NCCCNCCCCNCCCN [Spermine]
Trans-stimulation data: total [3H]CQ transport, normalised to the oocyte type control (non-expressing oocytes [1]): 99 ± 3.8 and 98 ± 2.9
Cis-inhibition data: total [3H]CQ transport, normalised to the oocyte type control (non-expressing oocytes [4]): 99 ± 3.7 and 99 ± 4.1 and 100 ± 4.8
